Measured values reported in ChEMBL document CHEMBL1201862, “PubChem BioAssay data set” (2004).
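Exposure lasted 48 hours, with cells grown in 96-well plates and compounds tested at five concentrations. GI50: concentration for 50% inhibition of growth.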 Activity calls are given as the source filed them. Cut-off read from the data, not from the text of the source: active = GI50 up to about 1.1 µM and inactive = higher.

What was measured:
Experiment in all cases: NCI-60 cell line screen, 48 h
[1] = system: KM-20L2
[2] = system: UACC-257
[3] = system: A549
[4] = system: SF-295
[5] = system: OVCAR-3
[6] = system: MOLT-4
[7] = system: EKVX
[8] = system: HOP-18
[9] = system: CCRF-CEM
[10] = system: HCT-116
[11] = system: HL-60
[12] = system: OVCAR-4
[13] = system: ACHN
[14] = system: HT-29
[15] = system: UO-31
[16] = system: RXF 393
[17] = system: DMS-114
[18] = system: SNB-19
[19] = system: SK-MEL-2
[20] = system: Malme-3M
[21] = system: K562
[22] = system: LXFL 529
[23] = system: SK-MEL-28
[24] = system: UACC-62
[25] = system: HOP-62
[26] = system: IGROV-1
[27] = system: OVCAR-5
[28] = system: NCI-H460
[29] = system: NCI-H23
[30] = system: SK-OV-3
[31] = system: A498
[32] = system: U-251
[33] = system: DLD-1
[34] = system: LOX IMVI
[35] = system: NCI-H522
[36] = system: COLO 205
[37] = system: CAKI-1
[38] = system: HOP-92
[39] = system: HCT-15
[40] = system: SK-MEL-5
[41] = system: M14
[42] = system: SNB-78
[43] = system: KM12
[44] = system: TK-10
[45] = system: XF498
[46] = system: SF-539
[47] = system: OVCAR-8
[48] = system: SR
[49] = system: HCC 2998
[50] = system: NCI-H226
[51] = system: SNB-75
[52] = system: DMS-273
[53] = system: SF-268
[54] = system: M19-MEL
[55] = system: 786-0
[56] = system: SN12C
[57] = system: SW-620
[58] = system: RPMI-8226

## CC#C[P+](c1ccccc1)(c1ccccc1)c1ccccc1
[1]
  GI50: 6.71 µM (inactive)
[2]
  GI50: 2.76 µM (inactive)
[3]
  GI50: 7.91 µM (inactive)
[4]
  GI50: 2.75 µM (inactive)
[5]
  GI50: 3.09 µM (inactive)
[6]
  GI50: 0.953 µM (active)
[7]
  GI50: 4.83 µM (inactive)
[8]
  GI50: 11.7 µM (inactive)
[9]
  GI50: 0.693 µM (active)
[10]
  GI50: 2.56 µM (inactive)
[11]
  GI50: 3.71 µM (inactive)
[12]
  GI50: 6.49 µM (inactive)
[13]
  GI50: 3.99 µM (inactive)
[14]
  GI50: 3.25 µM (inactive)
[15]
  GI50: 7.41 µM (inactive)
[16]
  GI50: 5.25 µM (inactive)
[17]
  GI50: 2.08 µM (inactive)
[18]
  GI50: 3.3 µM (inactive)
[19]
  GI50: 1.56 µM (inactive)
[20]
  GI50: 10.4 µM (inactive)
[21]
  GI50: 1.95 µM (inactive)
[22]
  GI50: 1.32 µM (inactive)
[23]
  GI50: 12.2 µM (inactive)
[24]
  GI50: 3.72 µM (inactive)
[25]
  GI50: 2.83 µM (inactive)
[26]
  GI50: 6.95 µM (inactive)
[27]
  GI50: 8.55 µM (inactive)
[28]
  GI50: 2.48 µM (inactive)
[29]
  GI50: 2.06 µM (inactive)
[30]
  GI50: 14.6 µM (inactive)
[31]
  GI50: 39.4 µM (inactive)
[32]
  GI50: 0.861 µM (active)
[33]
  GI50: 2.34 µM (inactive)
[34]
  GI50: 2 µM (inactive)
[35]
  GI50: 0.284 µM (active)
[36]
  GI50: 1.35 µM (inactive)
[37]
  GI50: 3.24 µM (inactive)
[38]
  GI50: 2.16 µM (inactive)
[39]
  GI50: 2.66 µM
[40]
  GI50: 2.2 µM (inactive)
[41]
  GI50: 1.88 µM (inactive)
[42]
  GI50: 4.33 µM (inactive)
[43]
  GI50: 2.88 µM (inactive)
[44]
  GI50: 4.09 µM (inactive)
[45]
  GI50: 2.39 µM (inactive)
[46]
  GI50: 2.25 µM (inactive)
[47]
  GI50: 0.962 µM (active)
[48]
  GI50: 2.88 µM (inactive)
[49]
  GI50: 3.52 µM (inactive)
[50]
  GI50: 3.13 µM (inactive)
[51]
  GI50: 2.43 µM (inactive)
[52]
  GI50: 2.11 µM (inactive)
[53]
  GI50: 2.09 µM (inactive)
[54]
  GI50: 2.9 µM (inactive)
[55]
  GI50: 1.6 µM (inactive)
[56]
  GI50: 1.12 µM (inactive)

## O=S(=O)(N/N=C/c1cccc(Cl)c1Cl)c1ccccc1
[1]
  GI50: > 100 µM (inactive)
[2]
  GI50: 48 µM (inactive)
[3]
  GI50: > 100 µM (inactive)
[4]
  GI50: 79.6 µM (inactive)
[5]
  GI50: > 100 µM (inactive)
[6]
  GI50: 26.9 µM (inactive)
[57]
  GI50: > 100 µM (inactive)
[7]
  GI50: > 100 µM (inactive)
[8]
  GI50: 87.3 µM (inactive)
[9]
  GI50: 66.2 µM (inactive)
[10]
  GI50: 47 µM (inactive)
[11]
  GI50: 39.9 µM (inactive)
[12]
  GI50: > 100 µM (inactive)
[13]
  GI50: 55 µM (inactive)
[14]
  GI50: 99.8 µM (inactive)
[15]
  GI50: 94.4 µM (inactive)
[16]
  GI50: 22.6 µM (inactive)
[17]
  GI50: 27.7 µM (inactive)
[19]
  GI50: 58.6 µM (inactive)
[20]
  GI50: > 100 µM (inactive)
[21]
  GI50: 62.2 µM (inactive)
[22]
  GI50: 70.6 µM (inactive)
[23]
  GI50: > 100 µM (inactive)
[24]
  GI50: > 100 µM (inactive)
[25]
  GI50: > 100 µM (inactive)
[26]
  GI50: 77.4 µM (inactive)
[27]
  GI50: > 100 µM (inactive)
[28]
  GI50: > 100 µM (inactive)
[29]
  GI50: 45.6 µM (inactive)
[30]
  GI50: > 100 µM (inactive)
[31]
  GI50: 40.8 µM (inactive)
[32]
  GI50: 90.4 µM (inactive)
[33]
  GI50: 45.4 µM (inactive)
[34]
  GI50: 68.7 µM (inactive)
[36]
  GI50: 89.7 µM (inactive)
[37]
  GI50: 69.3 µM (inactive)
[38]
  GI50: 14.2 µM (inactive)
[39]
  GI50: 98.2 µM
[40]
  GI50: 43.6 µM (inactive)
[41]
  GI50: > 100 µM (inactive)
[42]
  GI50: > 100 µM (inactive)
[58]
  GI50: 66.2 µM (inactive)
[43]
  GI50: > 100 µM (inactive)
[44]
  GI50: > 100 µM (inactive)
[45]
  GI50: 54.7 µM (inactive)
[46]
  GI50: 80 µM (inactive)
[47]
  GI50: 78.2 µM (inactive)
[48]
  GI50: 38.8 µM (inactive)
[49]
  GI50: > 100 µM (inactive)
[50]
  GI50: > 100 µM (inactive)
[51]
  GI50: 99.1 µM (inactive)
[52]
  GI50: 71.4 µM (inactive)
[53]
  GI50: 35.5 µM (inactive)
[54]
  GI50: 93.8 µM (inactive)
[55]
  GI50: > 100 µM (inactive)
[56]
  GI50: 46 µM (inactive)
